Laboratory results published in patent US8557839B2, “Fused ring azadecalin glucocorticoid receptor modulators” (Corcept Therapeutics, Inc., priority 2004, dated 2013).
pKi: −log10 of the molar value.

Key:
[1] = biological target: T1, glucocorticoid receptors (Homo sapiens, UniProt P04150); test: GR functional assay using SW1353/MMTV-5 cells (dexamethasone-induced luciferase); format: cell-based; set-up: contains endogenous glucocorticoid receptors; endogenous in cells; host or cells: SW1353/MMTV-5 (human chondrosarcoma, stably carrying the pMAMneo-Luc reporter)
T1 sequence (P04150 1-777): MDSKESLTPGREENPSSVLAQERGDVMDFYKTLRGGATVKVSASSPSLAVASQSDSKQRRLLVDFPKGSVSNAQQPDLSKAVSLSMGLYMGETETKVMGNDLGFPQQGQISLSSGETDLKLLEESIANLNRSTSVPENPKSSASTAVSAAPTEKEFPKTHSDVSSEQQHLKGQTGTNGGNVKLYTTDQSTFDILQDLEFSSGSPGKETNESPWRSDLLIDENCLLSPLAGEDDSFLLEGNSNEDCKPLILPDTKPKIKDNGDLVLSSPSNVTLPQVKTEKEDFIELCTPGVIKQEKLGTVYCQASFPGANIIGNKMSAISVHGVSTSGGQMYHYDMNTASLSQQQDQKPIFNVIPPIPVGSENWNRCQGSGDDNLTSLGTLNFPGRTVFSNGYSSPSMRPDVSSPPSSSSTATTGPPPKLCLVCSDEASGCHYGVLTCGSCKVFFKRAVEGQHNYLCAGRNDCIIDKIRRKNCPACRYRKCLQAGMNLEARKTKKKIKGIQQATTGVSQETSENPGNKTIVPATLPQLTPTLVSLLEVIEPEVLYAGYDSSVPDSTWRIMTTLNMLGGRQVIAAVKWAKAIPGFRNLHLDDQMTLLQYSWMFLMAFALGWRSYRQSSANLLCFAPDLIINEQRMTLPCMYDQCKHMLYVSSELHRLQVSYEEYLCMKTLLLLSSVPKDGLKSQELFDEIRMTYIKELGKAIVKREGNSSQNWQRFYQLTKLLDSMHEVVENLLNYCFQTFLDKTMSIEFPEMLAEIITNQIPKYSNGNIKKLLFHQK
Description: SW1353/MMTV-5 is an adherent human chondrosarcoma cell line that contains endogenous glucocorticoid receptors. It was transfected with a plasmid (pMAMneo-Luc) encoding firefly luciferase located behind a glucocorticoid-responsive element (GRE) derived from a viral promoter (long terminal repeat of mouse mammary tumor virus). A stable cell line SW1353/MMTV-5 was selected with geneticin, which was required to maintain this plasmid.
SW1353/MMTV-5 cells were distributed in 96-well plates and incubated in medium (without geneticin) for 24 hrs (in the absence of CO2).

[2] = biological target: T1, glucocorticoid receptors; test: Glucocorticoid receptor binding displacement assay with 3H-dexamethasone; set-up: This GR was a full-length steroid hormone receptor; host or cells: recombinant baculovirus-infected insect cells
Description: The source of the receptor was recombinant baculovirus-infected insect cells. This GR was a full-length steroid hormone receptor likely to be associated with heat-shock and other endogenous proteins.
For the Primary Screen, test compounds were tested at 1 μM in duplicate. These compounds were diluted from 10 mM stock in 100% DMSO. After dilution to 100 μM, 5 μl were added to 245 μl assay buffer to obtained 2 μM compound and 2% DMSO.
For the IC50 determinations, test compounds were tested at 6 concentrations in duplicate (concentration range depends on % inhibition binding that was obtained in the Primary Screen). Test compounds were diluted from 10 mM stock in 100% DMSO. The tested solutions were prepared at 2× final assay concentration in 2% DMSO/assay buffer.
All reagents and the assay plate were kept on ice during the addition of reagents. […] After the additions, the incubation mixture was mixed and incubated for 2.5 hrs at 4° C.
After 2.5 hrs incubation, unbound counts were removed with dextran coated charcoal (DCC) as follows: 25 μl of DCC solution (10% DCC in assay buffer) was added to all wells and mixed (total volume 225 μl). The plate was centrifuged at 4000 rpm for 10 minutes at 4° C. 75 μl of the supernatants (i.e.⅓ of total volume) was carefully pipetted into an optiplate. 200 μl of scintillation cocktail were added (Microscint-40, Packard Bioscience. B.V.). The plate was vigorously shaken for approx. 10 minutes and counted on Topcount.
The IC50 values were converted to Ki (the inhibition constant) using the Cheng-Prusoff equation.
Reagents: Assay buffer: 10 mM potassium phosphate buffer pH 7.6 containing 5 mM DTT, 10 mM sodium molybdate, 100 μM EDTA and 0.1% BSA.

[3] = Ki from IC50 by Cheng-Prusoff, 2.5 nM 3H-dexamethasone, read-out: GR Binding
[4] = SW1353/MMTV-5 cells, antagonism of 50 nM dexamethasone, luciferase, read-out: GR Functional

Row | Structure (SMILES) | pKi [1] | pKi [2] | pKi ([1]; read-out: GR Functional) | pKi [2, 3] | pKi [1, 4]
1 | Fc1ccc(CC23Cc4cnn(-c5ccc(F)cc5)c4C=C2CCN(Cc2cccnc2)C3)cc1 (centres unmarked) | < 7.00 | 7.00 to 8.00 | – | – | –
2 | CCN(CC)C[C@]12Cc3cnn(-c4ccc(F)cc4)c3C=C1CCN(S(=O)(=O)c1ccccc1)C2 | – | – | 7.00 to 8.00 | > 8.00 | –
3 | CN1CCOc2cc(S(=O)(=O)N3CCC4=Cc5c(cnn5-c5ccc(F)cc5)CC4(Cc4ccc(F)cc4)C3)ccc21 (centres unmarked) | – | – | > 8.00 | > 8.00 | –
4 | COCCOC[C@]12Cc3cnn(C4CCCC4)c3C=C1CCN(S(=O)(=O)c1ccc(C)cc1)C2 | – | – | 7.00 to 8.00 | > 8.00 | –
5 | CC(C)(C)c1ccc(S(=O)(=O)N2CCC3=Cc4c(cnn4-c4ccc(F)cc4)C[C@]3(Cc3ccccc3)C2)cc1 | – | – | > 8.00 | > 8.00 | –
6 | C[C@]12Cc3cnn(-c4ccc(F)cc4)c3C=C1CCN(S(=O)(=O)c1ccc(N)cc1)C2 | – | – | < 7.00 | 7.00 to 8.00 | –
7 | COC(=O)C[C@]12Cc3cnn(-c4ccc(F)cc4)c3C=C1CCN(S(=O)(=O)c1ccc(C(C)(C)C)cc1)C2 | – | – | 7.00 to 8.00 | > 8.00 | –
8 | Cn1cc2c(n1)C=C1CCN(S(=O)(=O)c3ccc(C(C)(C)C)cc3)CC1(Cc1ccccc1)C2 (centres unmarked) [drawing 248] | – | – | – | > 8.00 | < 7.00
9 | O=S(=O)(c1ccc(F)cc1)N1CCC2=Cc3c(cnn3-c3ccc(F)cc3)C[C@]2(CN2CCCC2)C1 | – | – | > 8.00 | > 8.00 | –
10 | CC(C)(C)c1ccc(S(=O)(=O)N2CCC3=Cc4c(cnn4-c4ccc(F)cc4)C[C@]3(CCN3CCCC3)C2)cc1 | – | – | 7.00 to 8.00 | 7.00 to 8.00 | –
11 | CC(C)(C)c1ccc(S(=O)(=O)N2CCC3=Cc4c(cnn4-c4ccc(F)cc4)CC3(Cc3ccccc3)C2)cc1 (centres unmarked) [drawing 249] | – | – | – | > 8.00 | 7.00 to 8.00
12 | COC[C@]12Cc3cnn(C(C)C)c3C=C1CCN(S(=O)(=O)c1ccc(C(C)(C)C)cc1)C2 | – | – | < 7.00 | 7.00 to 8.00 | –
13 | CCCCn1ncc2c1C=C1CCN(S(=O)(=O)c3ccc(C(C)(C)C)cc3)C[C@@]1(COCCOC)C2 | – | – | 7.00 to 8.00 | > 8.00 | –
14 | CCN(CC)C[C@]12Cc3cnn(-c4ccc(F)cc4)c3C=C1CCN(S(=O)(=O)c1ccc(OC)cc1)C2 | – | – | 7.00 to 8.00 | > 8.00 | –
15 | COCCOC[C@]12Cc3cnn(-c4ccc(F)cc4)c3C[C@@H]1CCN(S(=O)(=O)c1ccccc1)C2 | – | – | 7.00 to 8.00 | > 8.00 | –
16 | CN1CCOc2cc(S(=O)(=O)N3CCC4=Cc5[nH]ncc5CC4(Cc4ccccc4)C3)ccc21 (centres unmarked) [drawing 247] | – | – | < 7.00 | > 8.00 | –
17 | Cn1cnc(S(=O)(=O)N2CCC3=Cc4c(cnn4-c4ccc(F)cc4)CC3(Cc3ccc(F)cc3)C2)c1 (centres unmarked) | – | – | < 7.00 | > 8.00 | –

Row | Structure (SMILES) | pKi [1] | pKi [2] | pKi ([1]; read-out: GR Functional) | pKi [2, 3] | pKi [1, 4]
18 | CC(C)(C)c1ccc(S(=O)(=O)N2CCC3=Cc4c(cnn4-c4ccc(F)cc4)CC3(Cc3ccc(F)cc3)C2)cc1 (centres unmarked) | 7.00 to 8.00 | > 8.00 | – | – | –
19 | CN1CCOc2cc(S(=O)(=O)N3CCC4=Cc5[nH]ncc5CC4(Cc4ccccc4)C3)ccc21 (centres unmarked) [drawing 231] | – | – | – | > 8.00 | < 7.00
20 | CCC(O)[C@]12Cc3cnn(-c4ccc(F)cc4)c3C=C1CCN(S(=O)(=O)c1ccc(C(C)(C)C)cc1)C2 (some centres unmarked) | – | – | 7.00 to 8.00 | > 8.00 | –
21 | CN(C)CC[C@]12Cc3cnn(-c4ccc(F)cc4)c3C=C1CCN(S(=O)(=O)c1ccc(C(C)(C)C)cc1)C2 | – | – | 7.00 to 8.00 | 7.00 to 8.00 | –
22 | COCCOC[C@]12Cc3cnn(-c4ccc(F)cc4)c3C=C1CCN(S(=O)(=O)c1ccccc1)C2 | – | – | > 8.00 | > 8.00 | –
23 | O=S(=O)(c1ccccc1)N1CCC2=Cc3c(cnn3-c3ccc(F)cc3)C[C@]2(CN2CCCCC2)C1 | 7.00 to 8.00 | > 8.00 | – | – | –
24 | Cc1ccc(-n2ncc3c2C=C2CCN(S(=O)(=O)c4ccc(C(C)(C)C)cc4)C[C@@]2(Cc2ccccc2)C3)cc1 | – | – | < 7.00 | > 8.00 | –
25 | O=S(=O)(c1ccc(N2CCOCC2)cc1)N1CCC2=Cc3[nH]ncc3CC2(Cc2ccccc2)C1 (centres unmarked) [drawing 246] | – | – | < 7.00 | > 8.00 | –
26 | Cc1ccc(S(=O)(=O)N2CCC3=Cc4c(cnn4-c4ccc(F)cc4)C[C@]3(CN3CCCC3)C2)cc1 | – | – | > 8.00 | > 8.00 | –
27 | COCCCOC[C@]12Cc3cnn(-c4ccc(F)cc4)c3C=C1CCN(S(=O)(=O)c1ccc(C(C)(C)C)cc1)C2 | – | – | > 8.00 | > 8.00 | –
28 | COCCOC[C@]12Cc3cnn(C)c3C=C1CCN(S(=O)(=O)c1ccc(C(C)(C)C)cc1)C2 | – | – | < 7.00 | 7.00 to 8.00 | –
29 | CCCCn1ncc2c1C=C1CCN(S(=O)(=O)c3ccc(C)cc3)C[C@@]1(C(=O)OC)C2 | – | – | < 7.00 | < 7.00 | –
30 | CC(C)(C)c1ccc(S(=O)(=O)N2CCC3=Cc4c(cnn4-c4ccc(F)cc4)C[C@]3(CNCCO)C2)cc1 | – | – | 7.00 to 8.00 | > 8.00 | –
31 | COC[C@]12Cc3cnn(-c4ccc(F)cc4)c3C=C1CCN(S(=O)(=O)c1ccc(F)cc1)C2 | – | – | 7.00 to 8.00 | > 8.00 | –
32 | CC(C)(C)c1ccc(S(=O)(=O)N2CCC3=Cc4c(cnn4-c4ccncc4)C[C@]3(C)C2)cc1 | – | – | < 7.00 | > 8.00 | –
33 | CC(C)n1ncc2c1C=C1CCN(S(=O)(=O)c3ccc(C(C)(C)C)cc3)C[C@@]1(CN1CCCCC1)C2 | – | – | 7.00 to 8.00 | > 8.00 | –
34 | COC[C@]12Cc3cnn(-c4ccc(F)cc4)c3C=C1CCN(S(=O)(=O)c1ccc(C)cc1)C2 | – | – | > 8.00 | > 8.00 | –
